According to article PMC4880308, “Elongation Factor Tu Prevents Misediting of Gly-tRNA(Gly) Caused by the Design Behind the Chiral Proofreading Site of D-Aminoacyl-tRNA Deacylase” (PLoS Biology, 2016):

T1: PfDTD (D-aminoacyl-tRNA deacylase from Plasmodium falciparum) (Plasmodium falciparum, UniProt Q8IIS0)
T1 construct: gene DTD; recombinant; C-terminal His-tagged U-15N protein for NMR; dimer with cross-subunit Gly-cisPro motif in the active site
T1 sequence (Q8IIS0 1-164): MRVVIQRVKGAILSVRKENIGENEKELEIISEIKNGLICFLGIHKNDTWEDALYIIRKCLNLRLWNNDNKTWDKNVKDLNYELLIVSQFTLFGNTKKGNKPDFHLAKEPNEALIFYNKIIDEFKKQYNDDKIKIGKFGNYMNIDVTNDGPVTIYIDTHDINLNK


What was measured:
[1] = biological target: T1, PfDTD (D-aminoacyl-tRNA deacylase from Plasmodium falciparum); assay: 2D […]-1H TROSY NMR titration (chemical shift perturbation); type: binding; details: substrate analog; 50 mM HEPES pH 7.0, 50 mM NaCl; 0.2 mM protein, up to 3 mM ligand
[2] = biological target: the molecule itself; assay: crystal structure; co-crystal of PfDTD with Gly3AA (molar ratio 1:20), P2(1), eight monomers in the asymmetric unit; 0.1 M HEPES pH 7.5, 0.4 M NaCl, 28% PEG3350

Row | Molecule | 2D 15N-1H TROSY NMR titration (chemical shift perturbation) [1] | binding result [2]
1 | C[C@@H](N)C(=O)N[C@H]1[C@@H](O)[C@H](n2cnc3c(N)ncnc32)O[C@@H]1CO [D-Ala3AA, D-alanyl-3′-aminoadenosine] | the data indicated binding of D-Ala3AA but not of L-Ala3AA | 
2 | D-aminoacyl-tRNA deacylase from Plasmodium falciparum (enzyme, D-aminoacyl-tRNA deacylase (DTD), Plasmodium falciparum, UniProt Q8IIS0; no tag is stated for the crystallised protein; The crystal also holds the small-molecule ligand Gly3AA; also called PfDTD; DTD; source: cloned, expressed, and purified as described in [15]) MRVVIQRVKGAILSVRKENIGENEKELEIISEIKNGLICFLGIHKNDTWEDALYIIRKCLNLRLWNNDNKTWDKNVKDLNYELLIVSQFTLFGNTKKGNKPDFHLAKEPNEALIFYNKIIDEFKKQYNDDKIKIGKFGNYMNIDVTNDGPVTIYIDTHDINLNK |  | binds
